How the values were obtained:
[1] = system: normal NK cells expanded with K562-aAPC; assay: percent inhibition of viability; higher = more inhibition; settings: 72 h, IL-2 2.5 ng/mL
Protocol: (§1)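 Drug sensitivity and resistance testing on K562-aAPC-expanded normal NK cells: 5 concentrations (10-fold steps over a 10,000-fold range), 72 h at 37 °C, viability by CellTiter-Glo normalised to DMSO and benzethonium chloride controls; DSS from the fitted curve.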

[2] = system: normal primary NK cells, pool 1 (3 donors) (IL-2 2.5 ng/mL); assay: drug sensitivity score (DSS) (DSS units); higher = more sensitive; extreme values may be limits of the assay; settings: 72 h
[3] = system: NK-92 (IL-2 2.5 ng/mL); assay: as above; settings: 72 h
[4] = system: IMC-1 (IL-2 20 ng/mL); assay: as above; settings: 72 h
[5] = system: DERL-7 (IL-2 2.5 ng/mL); assay: as above; settings: 72 h
[6] = system: SNK-6 (IL-2 2.5 ng/mL); assay: as above; settings: 72 h
[7] = system: normal primary NK cells, pool 3 (3 donors) (IL-2 2.5 ng/mL); assay: as above; settings: 72 h
[8] = system: KAI3 (IL-2 2.5 ng/mL); assay: as above; settings: 72 h
[9] = system: NK-YS (IL-2 2.5 ng/mL); assay: as above; settings: 72 h
[10] = system: normal primary NK cells, pool 1 (3 donors), resting (IL-2 0 ng/mL); assay: as above; settings: 72 h
[11] = system: NKL (IL-2 2.5 ng/mL); assay: as above; settings: 72 h
[12] = system: YT (IL-2 2.5 ng/mL); assay: as above; settings: 72 h
[13] = system: KHYG-1 (IL-2 2.5 ng/mL); assay: as above; settings: 72 h
[14] = system: normal primary NK cells, pool 2 (3 donors) (IL-2 2.5 ng/mL); assay: as above; settings: 72 h
[15] = system: normal primary NK cells, pool 1 (3 donors) (IL-2 2.5 ng/mL); assay: percent inhibition of viability; higher = more inhibition; settings: 72 h
[16] = system: NK-92 (IL-2 2.5 ng/mL); assay: as above; settings: 72 h
[17] = system: IMC-1 (IL-2 20 ng/mL); assay: as above; settings: 72 h
[18] = system: DERL-7 (IL-2 2.5 ng/mL); assay: as above; settings: 72 h
[19] = system: SNK-6 (IL-2 2.5 ng/mL); assay: as above; settings: 72 h
[20] = system: normal primary NK cells, pool 3 (3 donors) (IL-2 2.5 ng/mL); assay: as above; settings: 72 h
[21] = system: KAI3 (IL-2 2.5 ng/mL); assay: as above; settings: 72 h
[22] = system: NK-YS (IL-2 2.5 ng/mL); assay: as above; settings: 72 h
[23] = system: normal primary NK cells, pool 1 (3 donors), resting (IL-2 0 ng/mL); assay: as above; settings: 72 h
[24] = system: NKL (IL-2 2.5 ng/mL); assay: as above; settings: 72 h
[25] = system: YT (IL-2 2.5 ng/mL); assay: as above; settings: 72 h
[26] = system: KHYG-1 (IL-2 2.5 ng/mL); assay: as above; settings: 72 h
[27] = system: normal primary NK cells, pool 2 (3 donors) (IL-2 2.5 ng/mL); assay: as above; settings: 72 h
[28] = system: normal NK cells expanded with K562-aAPC; assay: drug sensitivity score (DSS) (DSS units); higher = more sensitive; extreme values may be limits of the assay; settings: 72 h; IL-2 2.5 ng/mL
Protocol: as §1

O=C(O)c1ccc2c(c1)nc(Nc1cccc(Cl)c1)c1ccncc12 [Silmitasertib] (max concentration tested 10000 nM)
percent inhibition of viability [%]
Settings	1 nM	10 nM	100 nM	1000 nM	10000 nM
[1]	6.72	1.13	2.51	24.6	85.7
[15]	-9.41	-7.07	-7.39	18.1	85.6
[16]	6.03	10.9	-12.3	-16.9	90.2
[17]	7.09	6.12	5.81	-2.16	48.4
[18]	-3.79	0.67	-2.32	10.4	96
[19]	4.5	3.13	-1.8	-10.8	85.2
[20]	-4.66	-2.89	-4.84	9.91	70.3
[21]	4.28	8.25	8.8	16.1	84.8
[22]	5.01	1.7	1.66	10.8	88.7
[23]	-25.1	-31.8	-43.9	-9.05	63.9
[24]	11.5	10.7	2.41	13.4	76.3
[25]	5.21	5.15	4.79	17.7	79.9
[26]	2.32	3.89	1.97	14.4	98.1
[27]	-8.83	-6.36	2.09	8.72	76.5

Settings	drug sensitivity score
[2]	7.64
[3]	4.09
[4]	2.35
[5]	7.04
[6]	4.04
[7]	5.54
[8]	7.33
[9]	6.72
[10]	2.91
[11]	6.45
[12]	7.24
[13]	7.83
[14]	5.68
[28]	8.41

CCCCCOC(=O)Nc1nc(=O)n([C@@H]2O[C@H](C)[C@@H](O)[C@H]2O)cc1F [Capecitabine] (max concentration tested 10000 nM)
percent inhibition of viability [%]
Settings	1 nM	10 nM	100 nM	1000 nM	10000 nM
[1]	-1.3	3.24	-1.87	-1.09	-2.22
[15]	-11.1	-11.6	0.78	-4.13	-5.4
[16]	-10.2	1.4	2.48	-3.88	10.2
[17]	-3.3	-4.34	-6.24	-6.22	-8.14
[18]	0.46	4.42	-2.34	4.15	52.2
[19]	12	11.5	0.05	16.4	72.5
[20]	0.26	5.64	1.92	7.05	2.46
[21]	1.53	10.3	11	18.4	51.4
[22]	-5.86	-8.43	-2.42	-0.04	39
[23]	-8.89	-7.83	13.7	10.2	11
[24]	-14.2	-5.91	-4.8	5.16	-0.14
[25]	-3.7	-7.15	-2.55	-0.84	48.6
[26]	-4.65	-8.98	-2.6	-4.39	-2.75
[27]	-2.47	1.21	-0.29	-0.41	-2.27

Settings	drug sensitivity score
[2]	0
[3]	0
[4]	0
[5]	3.42
[6]	6.62
[7]	0
[8]	4.96
[9]	1.92
[10]	1.76
[11]	0
[12]	2.47
[13]	0
[14]	0
[28]	0

Reference: the supplement of paper PMC5908809
